# Results: patent publication US20240277637A1, “CAPSAICIN DERIVATIVES IN THE TREATMENT OF IDIOPATHIC PULMONARY FIBROSIS” (aXichem AB, priority 2021, published 2024)
# How the values were obtained:
# [1] = system: human corneal epithelial cells; assay: Clonogenic cell survival assay, corneal epithelial cells with PDGF-AB (Example 1); type: cell-based; settings: 10 ng/ml PDGF-AB, 14 days
# Experimental: (§1) Primary isolated human corneal epithelial cells; Normal, Human cells (ATCC® PCS-700-010™) were maintained in culture at 37° C. with 5% CO2 and 95% humidity in serum reduced (5% fetal calf serum) modified promocell media (MPM) supplemented with 4 ng/ml fibronectin (FN), 2 ng/ml human recombinant vascular endothelial growth factor (VEGF) and 4 ng/ml basic fibroblast growth factor (bFGF).
# A clonogenic cell survival assay determines the ability of a cell to proliferate indefinitely. The effects of phenylcapsaicin (2) on clonogenic survival of corneal epithelial cells was investigated by plating the cells with increasing numbers (102 to 5×104) in 25 cm^2 flasks. SU9518, a known inhibitor PDGF that has shown the ability to reduce radiation-induced fibroblast and endothelial cell activation, was used as the positive control. The cells were incubated with 0-10 μM of phenylcapsaicin and SU9518 separately in the presence of 10 ng/ml PDGF-AB. The flasks were returned to the incubator for 14 days, after which they were stained with crystal violet. The colonies were counted, and the surviving
# [2] = system: human corneal epithelial cells; assay: Proliferation assay, PDGF-stimulated corneal epithelial proliferation (Example 1); type: cell-based; settings: for IC50: Homo sapiens, Corneal epithelial cell, 10 ng/ml PDGF, 72 hours
# Experimental: as §1
# (§2) Corneal cells were harvested by trypsinization at 37° C. and neutralized with trypsin-neutralizing solution. A suspension of 50,000 cells in MPM/DMEM was added to 25 ml flasks. The cells were incubated with phenylcapsaicin or SU9518 for 1 hour in cytokine-free medium at standard conditions and incubated for another 72 hours in the presence of final mediums (either with 10 ng/ml PDGF-AB+4 ng/ml FN, or with 2 ng/ml VEGF+4 ng/ml bFGF+4 ng/ml FN). The cells were then dispersed in trypsin, resuspended, and counted in a coulter counter.
# [3] = system: human corneal epithelial cells; assay: Proliferation assay, VEGF+bFGF-stimulated corneal epithelial proliferation (Example 1); type: cell-based; settings: Corneal epithelial cell, highest dose tested 10 uM, 72 hours, read-out: IC50, VEGF+bFGF-induced proliferation
# Experimental: as §1, §2
# [4] = system: human bronchial epithelial cells; assay: Clonogenic cell survival assay, bronchial epithelial cells with PDGF-AB (Example 2); type: cell-based
# Experimental: (§3) Primary isolated human bronchial epithelial cells (NHBE) (Normal, Human (ATCC® BEAS-2B™)) were cultured up to passage 6. […].
# A clonogenic cell survival assay determines the ability of a cell to proliferate indefinitely. The effects of phenylcapsaicin on clonogenic survival of bronchial epithelial cells was investigated by plating the cells with increasing numbers (10^2 to 5×10^4) in 25 cm^2 flasks. SU9518, a known inhibitor for PDGF which has shown the ability to reduce radiation-induced fibroblast and endothelial cell activation, was used as the positive control. The cells were incubated with 0-10 μM of phenylcapsaicin and SU9518 separately in the presence of 10 ng/ml PDGF-AB. The flasks were returned to the incubator for 14 days, after which they were stained with crystal violet. The colonies were counted, and the surviving percentage was determined for clonogenic survival after correcting for plating efficiency.
# [5] = system: human bronchial epithelial cells; assay: Proliferation assay, VEGF+bFGF-stimulated bronchial epithelial proliferation (Example 2); type: cell-based; settings: 72 hours
# Experimental: as §3
# as §2, with “Bronchial” for “Corneal”, “trypsinisation” for “trypsinization”, “neutralised” for “neutralized”, “trypsin-neutralising” for “trypsin-neutralizing”
# [6] = system: human bronchial epithelial cells; assay: Clonogenic cell survival assay, bronchial epithelial cells with PDGF-AB (Example 3); type: cell-based; settings: 10 ng/ml PDGF-AB, 14 days
# Experimental: (§4) Primary isolated human bronchial epithelial cells (NHBE) were used in this assay sourced from the American Tissue Culture Collection (Normal, Human (ATCC® BEAS-2B™)) and were cultured up to passage 6. […].
# A clonogenic cell survival assay determines the ability of a cell to proliferate indefinitely. Cells were plated with increasing numbers (102 to 5×10^4) in 25 cm^2 flasks. SU9518, SU9518, a known inhibitor PDGF that has shown the ability to reduce radiation-induced fibroblast and endothelial cell activation, and phenylcapsaicin were used as positive controls. The cells were incubated with 0-10 μM (3% DMSO aqueous) of phenylcapsaicin, SU9518, and compounds 1 and 3-7 separately in the presence of 10 ng/ml PDGF-AB (Sigma Aldrich). The flasks were returned to the incubator for 14 days, after which they were stained with crystal violet (Sigma Aldrich). The colonies were counted and the surviving percentage was determined for clonogenic survival after correcting for plating efficiency.
# [7] = system: human bronchial epithelial cells; assay: Clonogenic cell survival assay, bronchial epithelial cells with PDGF-AB (Example 4); type: cell-based; settings: 10 ng/ml PDGF-AB, 14 days
# Experimental: as §4
# The effects of Phenylcapsaicin (2) on clonogenic survival of bronchial epithelial cells, by plating the cells with increasing numbers (102 to 5×104) in 25 cm^2 flasks were investigated. SU9518* and Phenylcapsaicin were used as positive controls. The cells were incubated with 0-10 μM (3% DMSO aqueous) of Phenylcapsaicin, SU9518, and compounds 8-12 separately in the presence of 10 ng/ml PDGF-AB (Sigma Aldrich). The flasks were returned to the incubator for 14 days, after which they were stained with crystal violet (Sigma Aldrich). The colonies were counted and the surviving percentage was determined for clonogenic survival after correcting for plating efficiency. The synthetic analogs were all calculated at 100% purity for molar concentrations.
# [8] = Acute inhalation toxicity test on rats; settings: both sexes, rat, in vivo, inhaled; single exposure via inhalation, nose-only; male and female rats; based on active substance
# Description: These findings strongly imply that phenylcapsaicin may be a useful drug against IPF, slowing down or reducing scarring of the lung tissue. Such a reduction in scarring may lead to a delayed progression of IPF and/or ease the symptoms of IPF, such as respiratory difficulty and/or coughing. […] This finding is an indication that the compounds of the invention will have a low toxicity in use against IPF using inhalation as the route of administration.
# [9] = Rage Paulsen et al. 2018; cited from earlier work
smiles,measurement,setting,value
"COc1cc(CNC(=O)CCCCC#Cc2ccccc2)ccc1O [Compound 2, N-(4-hydroxy-3-methoxybenzyl)-7-phenylhept-6-ynamide]",effect on clonogenic survival,[1]; 0-10 μM,dose-dependant inhibitory effect on survival
same,surviving fraction of epithelial cells,[1]; 5 μM,27%
same,IC50,"[2]; read-out: IC50, PDGF-induced epithelial proliferation",~1000 nM
same,IC50,"[2]; read-out: IC50, PDGF-induced proliferation",~1000 nM
same,selectivity for PDGF pathway,"[2]; PDGF- versus VEGF+bFGF-induced proliferation, corneal cells",work selectively on the PDGF pathway
same,IC50,[3],> 10000 nM
same,effect on clonogenic survival,"[4]; 0-10 μM, 10 ng/ml PDGF-AB, 14 days",dose-dependent inhibitory effect on survival
same,surviving fraction of epithelial cells,"[4]; 5 μM, 10 ng/ml PDGF-AB, 14 days",35%
same,survival rate of the cells,"[4]; 10 μM, after 14 days, in the presence of PDGF",35%
same,"IC75, epithelial proliferation stimulated by VEGF and bFGF",[5],~5000 nM
same,IC50,"[5]; Homo sapiens, Epithelial cell, highest dose tested 10 uM, read-out: IC50, VEGF+bFGF-induced proliferation",> 10000 nM
same,effect on clonogenic survival / PDGF inhibition (words),[6]; 0-10 μM,reduction in the survival fraction of endothelial cells in a dose dependent manner
same,Clonogenic Survival Assay (percent),[6]; 0.10 μM,83%
same,Clonogenic Survival Assay (percent),"[6]; 0.10 μM, listed as phenylcapsaicin",83%
same,Clonogenic Survival Assay (percent),[6]; 0.50 μM,59%
same,Clonogenic Survival Assay (percent),[6]; 1.00 μM,41%
same,Clonogenic Survival Assay (percent),[6]; 2.00 μM,35%
same,Clonogenic Survival Assay (percent),[6]; 5.00 μM,35%
same,Clonogenic Survival Assay (percent),[6]; 10.00 μM,32%
same,Clonogenic Survival Assay (percent),"[6]; 10.00 μM, listed as phenylcapsaicin",32%
same,effect on clonogenic survival / PDGF inhibition (words),[7]; 0-10 μM,reduction in the survival fraction of endothelial cells in a dose dependent manner
same,Clonogenic Survival Assay (percent),[7]; 0.10 uM,83%
same,Clonogenic Survival Assay (percent),[7]; 0.50 uM,59%
same,Clonogenic Survival Assay (percent),[7]; 1.00 uM,41%
same,Clonogenic Survival Assay (percent),[7]; 2.00 uM,35%
same,Clonogenic Survival Assay (percent),[7]; 5.00 uM,35%
same,Clonogenic Survival Assay (percent),[7]; 10.00 uM,32%
same,LC50,[8],> 5.65 µg/mL
same,gene mutations and chromosomal damage,[9],safe with regards to gene mutations and chromosomal damage
same,systemic toxicity,[9],low systemic toxicity
